# According to patent US20240216320A1, “COMPOSITIONS AND METHODS FOR TREATING SICKLE CELL DISEASE” (Augusta University Research Institute, Inc., priority 2019, published 2024):
# What was measured:
# [1] = tested on: HbF in β-YAC transgenic mice; assay: HbF induction (F-cells, MFI) in β-YAC transgenic mice; assay type: in vivo, mouse
# [2] = tested on: LCR-HS2; assay: ChIP assay, histone acetylation in LCR-HS2; assay type: cell-based, human
# Description: (§1) ChIP assay was performed as previously published by our group with immunoprecipitations for AcH3, AcH4 and TBP antibodies (Santa Cruz Biotechnology) and rabbit IgG as a control. Primers used to quantify in vivo chromatin modifications are as follows: locus control region DNase I hypersensitive site 2 (LCR-HS2) forward […] (SEQ ID NO:1) and reverse […] (SEQ ID NO:2), γ-globin promoter (forward CTGAAACGGTCCCTGGCTA (SEQ ID NO:3), reverse […] (SEQ ID NO:4)), and β-globin promoter (forward […] (SEQ ID NO:5), reverse […] (SEQ ID NO:6)).
# [3] = tested on: HbF in sickle erythroid precursors; assay: F-cells and HbF MFI by flow cytometry in sickle erythroid precursors; assay type: cell-based, human; conditions: sickle erythroid precursors
# Description: For primary cultures, erythroid precursors were generated from peripheral blood mononuclear cells isolated from discard blood of sickle patients under an IRB exempt protocol. These cells were cultured in a two-phase liquid culture system previously published (Li, B., et al., Haematologica 103:e384-e387 (2018)).
# During phase 1, cells were grown in Iscove's Dulecco Media with 15% fetal bovine serum, 15% human AB serum, 10 ng/mL interleukin-3, 50 ng/mL stem cell factor and 2 IU/mL of erythropoietin (Peprotech, Rocky Hill NJ). Phase 2 of culture initiated on day 7 with a similar medium without stem cell factor and interleukin-3. On day 8, erythroid precursors were treated with AN-233 (0.125 mM and 0.25 mM), ethanol (EtOH; […] and 0.016%) and the positive control HU (100 μM) for 48 h and harvested for the various analyses.
# To measure percent HbF positive cells (F-cells), K562 cells and erythroid precursors were fixed with 1% formaldehyde, permeabilized with ice-cold acetone:methanol (4:1 ratio) and stained with fluorescein isothiocyanate (FITC) anti-HbF antibody (ab19365, Abcam Cambridge MA) and isotype control IgG antibody (MBS524511, MyBioSource, San Diego CA) was used to detect non-specific staining. The F-cells levels and HbF protein levels measured by mean fluorescence intensity (MFI) were analyzed on an LSR-II flow cytometer (BD Biosciences, San Jose CA) and FlowJo analysis to generate quantitative data.
# [4] = tested on: p38 MAPK; assay: Western blot of phosphorylated p38 MAPK in K562 cells; assay type: cell-based; conditions: 0.25 mM
# Description: (§2) Western blot analysis was performed using whole cell lysates generated with RIPA buffer (ThermoScientific, Rockford, IL) supplemented with proteinase and phosphatase inhibitor cocktails. For histone acetylation studies, nuclear lysates were prepared by suspending cells in buffer containing 20 mM HEPES, pH 7.9, 50 mM KCl, 420 mM NaCl, 0.1 mM EDTA, 1 mM DTT, 10% glycerol and protease inhibitor mixture for 30 min, followed by centrifugation. Antibodies against HbF (51-7), HbA (37-8), and Tata binding protein (TBP; N-12) were purchased from Santa Cruz Biotechnology (Dallas TX); antibodies against β-actin (A5316) and rabbit IgG (18140) were purchased from Sigma (St. Louis MO). Acetylated histone H3 (AcH3; 06-599) and AcH4 (06-866) antibodies were purchased from Millipore (Burlington, MA).
# The second active metabolite of AN-233 hydrolysis is BA. It was previously reported that HbF induction by BA occurs through p38 MAPK activation.
# [5] = tested on: acetylated histone H3 (AcH3); assay: Western blot of acetylated histone H3 in nuclear lysates of sickle erythroid cells; assay type: cell-based, human
# Description: as §2
# [6] = tested on: β-globin gene promoter; assay: ChIP assay, histone acetylation in β-globin gene promoter; assay type: cell-based, human
# Description: as §1
# [7] = tested on: eIF2αP (eukaryotic translation initiation factor 2α phosphorylation); assay: Western blot of eIF2αP in K562 cells; assay type: cell-based; conditions: dose-dependent, maximal
# Description: as §2
# (§3) Since the biosynthesis of heme prosthetic group requires ALA as a precursor and AN-233 is hydrolyzed to BA and ALA, it was next determined whether heme levels are altered after treatments of K562 cells. Using a colorimetric quantitative assay, a 1.5-fold and 1.8-fold increase (p<0.05) in intracellular heme was observed after 0.25 mM and 0.5 mM AN-233 treatment respectively (FIG. 2A). […] Therefore, K562 cells were treated with AN-233 and phosphorylated and total HRI and eIF2αP levels were measured. […]
# [8] = tested on: sickle erythroid precursors; assay: In vitro sickling assay under 2% oxygen; assay type: cell-based, human; conditions: 2% oxygen overnight
# Description: In vitro sickling studies were conducted as previously published by our group (Zhu, X., et al., Blood, 131:558-562 (2018)). Briefly, after drug inductions of sickle erythroid pre-cursors for 48 h, cells were incubated in 2% oxygen overnight and then fixed with 2% formaldehyde. Erythroid morphology was evaluated microscopically and the number of sickled cells per high power field manually counted for 1000 cells, per triplicates per condition.
# [9] = tested on: anemic C57BL mouse model; conditions: cited from earlier work
# [10] = tested on: Heme-regulated inhibitor (HRI) kinase; assay: Western blot of HRI in K562 cells; assay type: cell-based; conditions: dose-dependent, maximal
# Description: as §2, §3
smiles,measurement,setting,value
"CCCC(=O)OC(C)OC(=O)CCC(=O)CN (stereo not shown) [AN-233, 1-(butyryloxy)ethyl-5-amino-4-oxopentanoate]",increase in F-cells,[1]; 200 mg/kg ip,3.4 fold
same,increase in HbF measured by MFI,[1]; 200 mg/kg ip,1.4 fold
same,F-cells,"[1]; 200 mg/kg ip, from 15.46%",52.5%
same,HbF measured by MFI,"[1]; 200 mg/kg ip, from 588 units",824 units
same,increase in F-cells,[1]; 300 mg/kg ip,4.5 fold
same,increase in HbF measured by MFI,[1]; 300 mg/kg ip,1.7 fold
same,F-cells,"[1]; 300 mg/kg ip, from 13.5%",60.6%
same,HbF measured by MFI,"[1]; 300 mg/kg ip, from 447 units",760 units
same,increase in AcH3 in LCR-HS2,[2],12.5 fold
same,increase in AcH4 in LCR-HS2,[2],5 fold
same,increase in F-cells,"[3]; 0.125 and 0.25 mM, 48 h, maximal",2 fold
same,F-cells,"[3]; 0.125 and 0.25 mM, maximal, from 16.31%",32.5%
same,increase in HbF measured by MFI,[3]; 48 h,1.5 fold
same,increase in phosphorylated p38 MAPK,[4],1.4 fold
same,global AcH3 levels in nuclear lysates,[5],increased global AcH3 levels
same,histone acetylation at the β-globin gene promoter,[6],no significant changes
same,decrease in eIF2αP levels,[7],50%
same,reduction of the percentage of sickled erythroid precursors,[8],up to 56%
same,toxicity,"[9]; anemic C57BL mice, oral, 4 weeks, up to 400 mg/kg",without toxicity
same,hemoglobin levels,"[9]; anemic C57BL mice, oral, 4 weeks",improved
same,histone acetylation in spleen tissue,[9]; tissue harvested 4 to 6 h after one oral dose,histone hyper-acetylation
same,decrease in HRI,[10],52%
